The IC50 is the point on the concentration scale where inhibition reaches its midpoint.

The values below come from patent publication US20230416228A1 (Forkhead Biotherapeutics, Inc., priority 2020, published 2023).

Each structure is given as a SMILES string.

In the assay the target is T1, human FOXO1 (constitutively active form Thr24Ala, Ser256Ala, Ser319Ala) (Homo sapiens, UniProt Q12778, S256A/S319A/T24A).
T1 construct: expressed in transfected cells; host or cells: HEK293 cells transfected with pcDNA3.1 plasmid
T1 sequence (Q12778 whole entry T24A/S256A/S319A): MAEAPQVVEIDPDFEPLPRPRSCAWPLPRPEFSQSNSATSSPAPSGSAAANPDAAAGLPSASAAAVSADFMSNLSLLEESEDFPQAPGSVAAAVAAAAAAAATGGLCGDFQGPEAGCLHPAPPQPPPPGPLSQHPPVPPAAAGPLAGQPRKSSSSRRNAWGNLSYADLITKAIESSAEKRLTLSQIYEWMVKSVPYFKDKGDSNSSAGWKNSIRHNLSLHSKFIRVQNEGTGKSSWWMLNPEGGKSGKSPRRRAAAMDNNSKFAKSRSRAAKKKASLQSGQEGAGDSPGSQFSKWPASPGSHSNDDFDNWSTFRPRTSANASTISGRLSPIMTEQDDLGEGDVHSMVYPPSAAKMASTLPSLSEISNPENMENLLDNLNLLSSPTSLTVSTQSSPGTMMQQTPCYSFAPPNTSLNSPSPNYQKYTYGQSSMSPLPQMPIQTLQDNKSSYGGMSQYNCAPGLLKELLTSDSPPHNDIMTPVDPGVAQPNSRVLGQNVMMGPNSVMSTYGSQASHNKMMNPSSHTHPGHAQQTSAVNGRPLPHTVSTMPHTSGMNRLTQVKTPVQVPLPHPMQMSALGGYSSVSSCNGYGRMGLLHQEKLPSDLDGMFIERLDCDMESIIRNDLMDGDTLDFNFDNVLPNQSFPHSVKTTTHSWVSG
Briefly: FOXO1 inhibitor activity assay: cell-based transcriptional (luciferase) reporter assay in HEK293 cells. As to conditions: HEK293 cells transfected with insulin response element firefly luciferase reporter, FOXO1 and Renilla luciferase; 10-point dose response 50 μM to 2.5 nM; 24 hours. A digest of the protocol: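 IC50 and maximal inhibition were fitted by 4-parameter logistic regression on normalized firefly/Renilla luciferase ratios. The 0% reference used RFP in place of FOXO1, and the 100% reference was DMSO-only with all plasmids.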
On the technique in general: A reporter such as luciferase makes a cellular process visible.
As for `Cn1nc(NC(=O)c2ccc(N3CCN(CCO)CC3)cc2)cc1-c1nc2ccccc2[nH]1` [Compound A-213, N-[5-(1H-benzimidazol-2-yl)-1-methyl-pyrazol-3-yl]-4-[4-(2-hydroxy-ethyl)piperazin-1-yl]benzamide], the IC50 fell in the range of 0.1 to 0.3 µM.
On to `COc1ccc(C(=O)Nc2cc(-c3nc4ccccc4[nH]3)n(CCO)n2)cc1Cl` [Compound A-195, N-[5-(1H-benzimidazol-2-yl)-1-(2-hydroxyethyl)pyrazol-3-yl]-3-chloro-4-methoxy-benzamide], for which the IC50 lay in the range of 0.1 to 0.3 µM.
The value for `O=C(O)CN1CCN(c2ccc(C(=O)Nc3cc(-c4nc5ccccc5[nH]4)[nH]n3)cn2)CC1` [Compound A-156, 2-[4-[5-[[5-(1H-benzimidazol-2-yl)-1H-pyrazol-3-yl]carbamoyl]-2-pyridyl]piperazin-1-yl]acetic acid] was over 1 µM.
For the compound `COCCn1nc(NC(=O)c2ccc(OC)c(Cl)c2)cc1-c1nc2ccccc2[nH]1` [Compound A-175, N-[5-(1H-benzimidazol-2-yl)-1-(2-methoxyethyl)pyrazol-3-yl]-3-chloro-4-methoxy-benzamide], the IC50 was over 1 µM.
The result for `Cn1nc(NC(=O)c2ccc(N3CCN4C(=O)CCC4C3)nc2)cc1-c1nc2ccccc2[nH]1` (stereo not drawn) [Compound A-228, N-[5-(1H-benzimidazol-2-yl)-1-methyl-pyrazol-3-yl]-6-(6-oxo-1,3,4,7,8,8a-hexahydropyrrolo[1,2-a]pyrazin-2-yl)pyridine-3-carboxamide] reads 0.1 to 0.3 µM.
The value for `O=C(Nc1cc(-c2nc3ccccc3[nH]2)[nH]n1)c1ccc(NCCO)c(Cl)c1` [Compound A-78, N-[5-(1H-benzimidazol-2-yl)-1H-pyrazol-3-yl]-3-chloro-4-(2-hydroxy-ethylamino)benzamide] was 0.1 to 0.3 µM; that for `O=C1CN(c2ccc(C(=O)Nc3cc(-c4nc5ccccc5[nH]4)[nH]n3)cn2)CCN1` [Compound A-69, N-[5-(1H-benzimidazol-2-yl)-1H-pyrazol-3-yl]-6-(3-oxopiperazin-1-yl)pyridine-3-carboxamide] was 0.3 to 1 µM; that for `COCCn1nc(NC(=O)c2ccc(N3CC(OC)C3)nc2)cc1-c1nc2ccccc2[nH]1` [Compound A-176, N-[5-(1H-benzimidazol-2-yl)-1-(2-methoxyethyl)pyrazol-3-yl]-6-(3-methoxyazetidin-1-yl)pyridine-3-carboxamide] was over 1 µM.
The result for `Cn1nc(NC(=O)c2ccc(N3CC4(COC4)C3)nc2)cc1-c1nc2ccccc2[nH]1` [Compound A-275, N-[5-(1H-benzimidazol-2-yl)-1-methyl-pyrazol-3-yl]-6-(2-oxa-6-azaspiro[3.3]heptan-6-yl)pyridine-3-carboxamide] reads 0.1 to 0.3 µM; that for `Cn1nc(NC(=O)c2ccc(N3CCN(CCO)CC3)nc2)cc1-c1nc2ccccc2[nH]1` [Compound A-204, N-[5-(1H-benzimidazol-2-yl)-1-methyl-pyrazol-3-yl]-6-[4-(2-hydroxy-ethyl)piperazin-1-yl]pyridine-3-carboxamide], 0.1 to 0.3 µM.
The compound `Cn1nc(NC(=O)c2ccc(N3CCN(CC(C)(C)O)CC3)cc2)cc1-c1nc2ccccc2[nH]1` [Compound A-259, N-[5-(1H-benzimidazol-2-yl)-1-methyl-pyrazol-3-yl]-4-[4-(2-hydroxy-2-methyl-propyl)piperazin-1-yl]benzamide] showed an IC50 of under 0.1 µM.
As to `Cn1nc(NC(=O)c2ccc(N3CCC4(CC3)COC4)nc2)cc1-c1nc2ccccc2[nH]1` [Compound A-282, N-[5-(1H-benzimidazol-2-yl)-1-methyl-pyrazol-3-yl]-6-(2-oxa-7-azaspiro[3.5]nonan-7-yl)pyridine-3-carboxamide], the IC50 is under 0.1 µM.
In turn, `CN1CCN(c2ccc(C(=O)Nc3cc(-c4nc5ccccc5[nH]4)n(CCO)n3)cn2)CC1` [Compound A-200, N-[5-(1H-benzimidazol-2-yl)-1-(2-hydroxyethyl)pyrazol-3-yl]-6-(4-methyl-piperazin-1-yl)pyridine-3-carboxamide] registered an IC50 of 0.3 to 1 µM.
Consider `COc1ccc(C(=O)Nc2cc(-c3nc4cccc(F)c4[nH]3)n(C)n2)cc1Cl` [Compound A-125, 3-chloro-N-[5-(7-fluoro-1H-benzimidazol-2-yl)-1-methyl-pyrazol-3-yl]-4-methoxy-benzamide], for which the IC50 is 0.1 to 0.3 µM.
The value for `Cn1nc(NC(=O)c2ccc(N3CCC(O)(CCO)CC3)nc2)cc1-c1nc2ccccc2[nH]1` [Compound A-283, N-[5-(1H-benzimidazol-2-yl)-1-methyl-pyrazol-3-yl]-6-[4-hydroxy-4-(2-hydroxyethyl)-1-piperidyl]pyridine-3-carboxamide] was under 0.1 µM.
`COCCOc1ccc(C(=O)Nc2cc(-c3nc4ccccc4[nH]3)[nH]n2)cc1C(F)(F)F` [Compound A-104, N-[5-(1H-benzimidazol-2-yl)-1H-pyrazol-3-yl]-4-(2-methoxyethoxy)-3-(trifluoromethyl)benzamide] gave an IC50 of under 0.1 µM.
The value for `COc1ccc2[nH]c(-c3cc(NC(=O)c4ccc(OCCO)c(Cl)c4)n[nH]3)nc2c1` [Compound A-117, 3-chloro-4-(2-hydroxyethoxy)-N-[5-(5-methoxy-1H-benzimidazol-2-yl)-1H-pyrazol-3-yl]benzamide formic acid] was under 0.1 µM.
In turn, `Cn1nc(NC(=O)c2ccc(N3CCN(CCO)CC3)nc2)cc1-c1nc2cc(F)ccc2[nH]1` [Compound A-150] yielded an IC50 of 0.1 to 0.3 µM.
Compound `COc1cc(C(=O)Nc2cc(-c3nc4ccccc4[nH]3)[nH]n2)ccc1OCCO` [Compound A-120, N-[5-(1H-benzimidazol-2-yl)-1H-pyrazol-3-yl]-4-(2-hydroxyethoxy)-3-methoxy-benzamide] came in with an IC50 of 0.3 to 1 µM.
For the compound `Cc1cc(N2CCOCC2)ncc1C(=O)Nc1cc(-c2nc3ccccc3[nH]2)n(C)n1` [Compound A-232, N-[5-(1H-benzimidazol-2-yl)-1-methyl-pyrazol-3-yl]-4-methyl-6-morpholino-pyridine-3-carboxamide], the IC50 was over 1 µM.
As for `Cn1nc(NC(=O)c2ccc(N3CCC(O)CC3)nc2)cc1-c1nc2cccc(F)c2[nH]1` [Compound A-134], the IC50 is 0.1 to 0.3 µM.
The result for `Cn1nc(NC(=O)c2ccc(N3CCN(C4COC4)CC3)nc2)cc1-c1nc2ccccc2[nH]1` [Compound A-203, N-[5-(1H-benzimidazol-2-yl)-1-methyl-pyrazol-3-yl]-6-[4-(oxetan-3-yl)piperazin-1-yl]pyridine-3-carboxamide] reads 0.1 to 0.3 µM; that for `COC1CCN(c2ccc(C(=O)Nc3cc(-c4nc5cc(F)ccc5[nH]4)n(C)n3)cn2)CC1` [Compound A-153, N-[5-(5-fluoro-1H-benzimidazol-2-yl)-1-methyl-pyrazol-3-yl]-6-(4-methoxy-1-piperidyl)pyridine-3-carboxamide], 0.1 to 0.3 µM.
The result for `O=C(Nc1cc(-c2nc3ccccc3[nH]2)[nH]n1)c1ccc(OCCO)c(F)c1` [Compound A-130, N-[5-(1H-benzimidazol-2-yl)-1H-pyrazol-3-yl]-3-fluoro-4-(2-hydroxyethoxy)benzamide] reads 0.3 to 1 µM.
The compound `CC(C)(O)C1CCN(c2ccc(C(=O)Nc3cc(-c4nc5ccccc5[nH]4)[nH]n3)cn2)CC1` [Compound A-47, N-[5-(1H-benzimidazol-2-yl)-1H-pyrazol-3-yl]-6-[4-(1-hydroxy-1-methyl-ethyl)-1-piperidyl]pyridine-3-carboxamide] showed a half-maximal inhibitory concentration (IC50) of under 0.1 µM.
For the compound `COc1ccn2cc(-c3cc(NC(=O)c4ccc(OC)c(Cl)c4)n[nH]3)nc2c1` [Compound A-162, 3-chloro-4-methoxy-N-[5-(7-methoxyimidazo[1,2-a]pyridin-2-yl)-1H-pyrazol-3-yl]benzamide], the IC50 was over 1 µM.
The value for `O=C(Nc1cc(-c2nc3ccccc3[nH]2)[nH]n1)c1ccc(N2CCC(O)CC2)cc1` [Compound A-36, N-[5-(1H-benzimidazol-2-yl)-1H-pyrazol-3-yl]-4-(4-hydroxy-1-piperidyl)-benzamide] was under 0.1 µM; that for `Cn1nc(NC(=O)c2ccc(N3CC4(CC(O)C4)C3)nc2)cc1-c1nc2ccccc2[nH]1` [Compound A-274, N-[5-(1H-benzimidazol-2-yl)-1-methyl-pyrazol-3-yl]-6-(6-hydroxy-2-azaspiro[3.3]heptan-2-yl)pyridine-3-carboxamide] was 0.1 to 0.3 µM; that for `Cn1nc(NC(=O)c2ccc(N3CCOCC3CO)nc2)cc1-c1nc2ccccc2[nH]1` (stereo not drawn) [Compound A-238, N-[5-(1H-benzimidazol-2-yl)-1-methyl-pyrazol-3-yl]-6-[3-(hydroxymethyl)morpholin-4-yl]pyridine-3-carboxamide] was 0.1 to 0.3 µM.
Consider `COc1cc(F)c2[nH]c(-c3cc(NC(=O)c4ccc(N5CCC(OC)CC5)nc4)nn3C)nc2c1` [Compound A-189, N-[5-(7-fluoro-5-methoxy-1H-benzimidazol-2-yl)-1-methyl-pyrazol-3-yl]-6-(4-methoxy-1-piperidyl)pyridine-3-carboxamide], for which the IC50 is under 0.1 µM.
The compound `[2H]C([2H])([2H])OCCN1CCN(c2ccc(C(=O)Nc3cc(-c4nc5ccccc5[nH]4)n(C)n3)cn2)CC1` [Compound A-260, N-[5-(1H-benzimidazol-2-yl)-1-methyl-pyrazol-3-yl]-6-[4-[2-(trideuterio-methoxy)ethyl]piperazin-1-yl]pyridine-3-carboxamide] registered an IC50 of 0.1 to 0.3 µM.
With `COc1cc(F)c2[nH]c(-c3cc(NC(=O)c4ccc(OC)c(Cl)c4)n[nH]3)nc2c1` [Compound A-127, 3-chloro-N-[5-(7-fluoro-5-methoxy-1H-benzimidazol-2-yl)-1H-pyrazol-3-yl]-4-methoxy-benzamide], the IC50 is under 0.1 µM.
On to `COCCOc1ccc(C(=O)Nc2cc(-c3nc4cc(F)ccc4[nH]3)n(C)n2)cc1Cl` [Compound A-166, 3-chloro-N-[5-(5-fluoro-1H-benzimidazol-2-yl)-1-methyl-pyrazol-3-yl]-4-(2-methoxyethoxy)benzamide], for which the IC50 is under 0.1 µM.
